Results from US7989433B2, “Substituted thieno[3,2-D]pyrimidines as melanin concentrating hormone receptor-1 antagonists” (Bristol-Myers Squibb Company, priority 2008, dated 2011).

Assays:
[1] = Full PK study in dog (half-life); settings: in vivo
[2] = system: hepatocytes; test: Hepatocyte clearance, human; assay type: in vitro ADME
From the text: As a consequence the projected human half-life for these two compounds was predicted to be 20 to 40 hr.

[3] = One month rat study, formation of biliary lesions; assay type: in vivo; settings: for Formation of Biliary Lesions: rats; for biliary lesion formation in rats: doses up to 300 mg/kg for a month
From the text: Further investigation established that the toxic agent was a metabolite arising from in vivo oxidative hydroxylation of the alkyl chain containing the tertiary carbinol moiety of compound f.

[4] = biological target: T1, MCHR (Rattus norvegicus, UniProt P97639); test: Assessment of in vivo MCHR activity in young growing rats (four day efficacy model); settings: for Efficacy at 30 mg/kg (weight loss in young growing rats): 30 mg/kg daily p.o. of ester prodrug, four day model; for Weight Reduction versus Vehicle: young growing rats
T1 construct: from tissue; host or cells: whole animal: male Sprague Dawley / Charles River rats
T1 sequence (P97639 whole entry): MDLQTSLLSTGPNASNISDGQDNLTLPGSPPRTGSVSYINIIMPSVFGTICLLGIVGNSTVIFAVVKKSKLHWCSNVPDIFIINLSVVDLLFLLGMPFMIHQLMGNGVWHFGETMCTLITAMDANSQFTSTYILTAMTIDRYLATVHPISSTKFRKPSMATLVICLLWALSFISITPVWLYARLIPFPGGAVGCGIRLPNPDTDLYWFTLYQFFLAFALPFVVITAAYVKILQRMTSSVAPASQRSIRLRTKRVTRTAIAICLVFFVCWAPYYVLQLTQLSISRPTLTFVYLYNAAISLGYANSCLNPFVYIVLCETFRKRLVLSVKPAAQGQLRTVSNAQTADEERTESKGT
Procedure: Male SPRAGUE DAWLEY® (CD, Charles River Breeding Laboratory) rats weighing approximately 240 grams were place in individual plastic cages with ALPHADRI® bedding. The room was maintained at 72° F. and 50% humidity, and a 12/12 light dark cycle with lights out at 1600 hours. The rats were conditioned for 5 days prior to the start of the study to having a choice of foods. A normal chow (HARLAN TEKLAD®, 2018) that contains 18% protein, 5% fat and 73% carbohydrate and a high fat high sugar diet (Research Diets (D2327)) that contains 20% protein, 40% fat and 40% carbohydrate where the carbohydrate is entirely sucrose and the fat is soybean and coconut oil. […] Body weight and consumption of both kinds of food as well as water intake were measured daily. Water was available ad lib throughout the study. Food consumption is presented as daily caloric consumption which is the sum of grams of chow multiplied by the Kcal per gram (3.5) plus grams of high fat high sugar multiplied by Kcal per gram (4.59).
Baseline body weight was measured prior to drug treatment on day 0 of the study. Baseline food consumption was the average of the 3 days prior to the first drug treatment. […] All data were evaluated using ANOVA and Fishers PLSD statistics.

[5] = biological target: T2, mutated (E4Q, A5T) hMCHR1 receptor (Homo sapiens, UniProt Q99705, A5T/E4Q); test: Radioligand binding assay for assessment of MCHR1 activity; settings: competition vs [Phe13,[125I]Tyr19]-MCH, HEK-293 membranes
T2 construct: expressed in transfected cells; host or cells: HEK-293 (stably transfected), membrane preparation
T2 sequence (Q99705 whole entry E4Q/A5T): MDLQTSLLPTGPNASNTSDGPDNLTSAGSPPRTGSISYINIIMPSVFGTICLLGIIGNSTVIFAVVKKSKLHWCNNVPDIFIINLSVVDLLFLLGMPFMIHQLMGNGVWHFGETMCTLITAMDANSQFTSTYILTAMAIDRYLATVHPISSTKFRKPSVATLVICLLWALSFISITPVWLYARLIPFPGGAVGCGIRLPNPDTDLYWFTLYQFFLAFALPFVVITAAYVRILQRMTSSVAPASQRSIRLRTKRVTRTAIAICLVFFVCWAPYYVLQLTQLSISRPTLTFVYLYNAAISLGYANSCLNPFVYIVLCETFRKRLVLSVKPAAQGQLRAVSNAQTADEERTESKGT
From the text: Compounds of the present invention, namely Compounds IA and IB of the invention, and Compounds a to f (prepared as described in U.S. Patent Publication No. 2007/0093509 A1 published Apr. 26, 2007), were initially characterized in an in vitro binding assay to determine their Ki or ability to antagonize binding of a peptide agonist to the human melanin concentrating hormone receptor (MCHR1).
Radioligand Binding Assay for Assessment of MCHR1 Activity
Membranes from stably transfected HEK-293 cells expressing a mutated (E4Q, A5T) hMCHR1 receptor were prepared by dounce homogenization and differential centrifugation. Binding experiments were carried out with 0.5-1.0 ug of membrane protein incubated in a total of 0.2 ml in 25 mM HEPES (pH 7.4) with 10 mM MgCl2, 2 mM EGTA, and 0.1% BSA (Binding Buffer) for 90 min. For competition binding assays, reactions were carried out in the presence of with 0.06-0.1 nM [Phe^13, [^125I]Tyr^19]-MCH and increasing concentrations of unlabeled test molecules. Reactions were terminated by rapid vacuum filtration over 96 well-GFC Unifilter plates pre-coated with 0.075 ml binding buffer containing 1% BSA, and washed 3 times with 0.4 ml of Phospho-buffered Saline (pH 7.4) containing 0.01% TX-100, Filters were dried, 0.05 ml MicroScint 20 was added to each well and radioactivity was subsequently quantified by scintillation counting on a TOPCOUNT® microplate scintillation counter (Packard). Inhibitory constants were determined by nonlinear least squares analysis using a four parameter logistic equation.

[6] = system: hepatocytes; test: Hepatocyte clearance, dog; assay type: in vitro ADME
[7] = system: cytochrome P450 enzymes (rat microsomal); test: Metabolic stability versus rat microsomal oxidative degradation; settings: rat microsomal oxidative degradation mediated by cytochrome P450
[8] = Rat PK model / eight hour PK study after oral prodrug ester; assay type: in vivo; settings: Sprague-Dawley; for AUC: blood, 10 mg/kg oral prodrug ester, 8 hr AUC of bio-active substance, no unit in table (b280 micromole*hr); for Kp: brain and plasma, 10 mg/kg oral dose of amino acid ester prodrug (valine or glycine), bio-active substance
Procedure: The relative ability of the prodrug to enhance exposure (bioavailability) was assessed in an eight hour PK study using cannulated SPRAGUE DAWLEY® (CD, Charles River Breeding Laboratory) rats. The compounds (parent and pro-drug esters) were administered p.o. at 2.0 ml/kg as a suspension in 0.5% methyl cellulose, 0.1% Tween 80 in water at 10 mg/kg p.o. Blood samples were taken at 1, 2, 4 and 8 hr. After determination of parent concentration, an AUC was calculated for the eight hour study.

[9] = biological target: T1, MCHR; test: Assessment of MCHR in vivo activity in mature obese rats; settings: dosed as prodrug
Procedure: Male rats, obtained from Charles River Laboratories weighing 250-300 g, were singly housed in plastic cages on a 12 hour light, 12 hour dark cycle with lights out at 1 pm. The animal room was maintained at 72 degrees F. and 50% humidity. The rats were made obese by giving them simultaneous access to two different diets, HARLAN TEKLAD® rat chow (standard chow) and Research Diets D12327 (a high fat, high carbohydrate, highly palatable diet). The Research Diets chow is comprised of 40% vegetable fat, 40% carbohydrate (sucrose) and 20% protein. The Harlan diet is comprised of 5% fat (soybean oil), 67% carbohydrate (starch) and 22% protein. The normal Harlan rat diet used contains 3.4 kcal/gram of diet, and Research Diet #12327 contains 4.59 kcal/gram. The rats were on the choice diet regime for 10 weeks in order to induce obesity. Once started on the choice diet regime the rats are maintained on it for the duration of the study. Baseline feeding and body weight were collected and used to sort animals into treatment groups. Mean rat weight at the start of the choice diet was 250 grams. The mean weight of the rats at the start of chronic dosing was 661.7±6.3 (mean±sem) grams.
Rats were dosed orally one hour before the start of the dark cycle. Body weight and food consumption were measured daily at the time of dosing. Food consumption was converted to Kcal consumed. Total Kcal consumed was determined by adding the Kcal consumed for each diet and this was determined by multiplying grams of each diet consumed times the Kcal/gram. […]

[10] = 3 mg/kg p.o. daily day 0-4, dosed as prodrug
[11] = 10 mg/kg p.o. daily day 0-4, dosed as prodrug
[12] = 30 mg/kg p.o. daily day 0-4, dosed as prodrug

Formation of Biliary Lesions [3] | Efficacy at 30 mg/kg (weight loss in young growing rats) [4] [%] | Ki [5] [nM] | Rat Microsomal Stability [7] [%] | AUC [8] [µM·h] | Kp [8] | Compound | half-life ([1]; Dog Half-life (hr)) [min] | hepatocyte clearance [2] | further results
 |  |  |  |  |  | COc1cc(-n2cnc3cc(-c4ccc(Cl)cc4)sc3c2=O)ccc1OC[C@H](OC(=O)CN)C1CC1.Cl [Example 5, (R)-2-(4-(6-(4-Chlorophenyl)-4-oxothieno[3,2-d]pyrimidin-3(4H)-yl)-2-methoxy-phenoxy)-1-cyclopropylethyl 2-aminoacetate, hydrochloride salt] |  |  | melting point: 218 to 220 °C
No | 3.2 | 11 | 100 | 20 | 1.1 | COc1cc(-n2cnc3cc(-c4ccc(Cl)cc4)sc3c2=O)ccc1OCC(O)CC(F)(F)F (stereo not drawn) [d] |  |  | 
 |  |  | 20 |  |  | COc1cc(-n2cnc3cc(-c4ccc(Cl)cc4)sc3c2=O)ccc1OCC1(O)CCC1 [a] |  |  | 
No | 4.1 | 12 | 60 | 14.5 | 3.2 | CCC(O)COc1ccc(-n2cnc3cc(-c4ccc(Cl)cc4)sc3c2=O)cc1OC (stereo not drawn) [c] |  |  | 
No | 4.5 | 8 | 100 | 46 | 0.09 | CCS(=O)(=O)CC(O)COc1ccc(-n2cnc3cc(-c4ccc(Cl)cc4)sc3c2=O)cc1OC (stereo not drawn) [e] |  |  | 
No | 6.4 | 10 | 92 | 24.5 | 0.9 | COc1cc(-n2cnc3cc(-c4ccc(Cl)cc4)sc3c2=O)ccc1OC[C@H](O)C1CC1 [IA, (R)-6-(4-Chlorophenyl)-3-(4-(2-cyclopropyl-2-hydroxyethoxy)-3-methoxyphenyl)-thieno[3,2-d]pyrimidin-4(3H)-one] | < 1200 | approximated that of dog | biliary lesion formation in rats [3]: neither compound IA nor compound IB induced biliary lesion formation
Yes | 0 |  | 40 |  |  | COc1cc(-n2cnc3cc(-c4ccc(Cl)cc4)sc3c2=O)ccc1OCC1(O)COC1 [b] |  |  | 
 |  |  |  |  |  | (R)-6-(4-Chlorophenyl)-3-(4-(2-cyclopropyl -2-hydroxyethoxy)-3-methoxyphenyl)-thieno[3,2-d]pyrimidin-4(3H)-one [IA] |  |  | Weight Reduction versus Vehicle ([9]; 0.3 mg/kg oral chronic dosing): 2.09%; Weight Reduction versus Vehicle ([9]; 1 mg/kg oral chronic dosing): 3.90%; Weight Reduction versus Vehicle ([9]; 3 mg/kg oral chronic dosing): 3.57%; Weight Reduction versus Vehicle ([9]; 10 mg/kg oral chronic dosing): 8.42%; Weight Reduction versus Vehicle ([9]; 30 mg/kg oral chronic dosing): 10.16%; Weight Reduction versus Vehicle [4, 10]: 2.6%; Weight Reduction versus Vehicle [4, 11]: 3.5%; Weight Reduction versus Vehicle [4, 12]: 6.4%

Compound | Formation of Biliary Lesions [3] | Efficacy at 30 mg/kg (weight loss in young growing rats) [4] [%] | Ki [5] [nM] | Rat Microsomal Stability [7] [%] | AUC [8] [µM·h] | Kp [8] | half-life ([1]; Dog Half-life (hr)) [min] | hepatocyte clearance [2] | further results
COc1cc(-n2cnc3cc(-c4ccc(Cl)cc4)sc3c2=O)ccc1OCC(C)(C)O [f] | Yes | 8.2 | 12 | 98 | 45 | 2 | > 12000 | very slow | biliary lesions in rats ([3]; 30 mg/kg for a month): developed obstructive hepatic biliary lesions; hepatocyte clearance [6]: very slow
COc1cc(-n2cnc3cc(-c4ccc(Cl)cc4)sc3c2=O)ccc1OCC1(O)CC(F)(F)C1 [IB, 6-(4-Chlorophenyl)-3-(4-((3,3-difluoro-1-hydroxycyclobutyl)methoxy)-3-methoxyphenyl)thieno[3,2-d]pyrimidin-4(3H)-one] | No | 7.9 | 18 | 95 | 38 | 2.5 | < 1200 | approximated that of dog | half-life [1]: 960 min; Weight Reduction versus Vehicle ([9]; 0.03 mg/kg oral chronic dosing): 1.7%; Weight Reduction versus Vehicle ([9]; 0.1 mg/kg oral chronic dosing): 3.2%; Weight Reduction versus Vehicle ([9]; 0.3 mg/kg oral chronic dosing): 5.0%; Weight Reduction versus Vehicle ([9]; 1 mg/kg oral chronic dosing): 6.6%; Weight Reduction versus Vehicle ([9]; 3 mg/kg oral chronic dosing): 7.8%; biliary lesion formation in rats [3]: neither compound IA nor compound IB induced biliary lesion formation; Weight Reduction versus Vehicle ([4]; 1 mg/kg p.o. daily day 0-4, dosed as prodrug): 2.9%; Weight Reduction versus Vehicle [4, 10]: 4.5%; Weight Reduction versus Vehicle [4, 11]: 6.4%; Weight Reduction versus Vehicle [4, 12]: 7.9%
